Assay results as given in publication PMC11915075, “Dibenzo [a, c] phenazin-11-yl(phenyl) methanone (SBLJ23), a novel selective inhibitor targeting JAK2^V617F mutation in myeloproliferative neoplasms” (Oncology Research, 2025).

Biological target: JAK2 (Homo sapiens, UniProt O60674)
Assay: biochemical

JAK2, sequence (O60674 whole entry): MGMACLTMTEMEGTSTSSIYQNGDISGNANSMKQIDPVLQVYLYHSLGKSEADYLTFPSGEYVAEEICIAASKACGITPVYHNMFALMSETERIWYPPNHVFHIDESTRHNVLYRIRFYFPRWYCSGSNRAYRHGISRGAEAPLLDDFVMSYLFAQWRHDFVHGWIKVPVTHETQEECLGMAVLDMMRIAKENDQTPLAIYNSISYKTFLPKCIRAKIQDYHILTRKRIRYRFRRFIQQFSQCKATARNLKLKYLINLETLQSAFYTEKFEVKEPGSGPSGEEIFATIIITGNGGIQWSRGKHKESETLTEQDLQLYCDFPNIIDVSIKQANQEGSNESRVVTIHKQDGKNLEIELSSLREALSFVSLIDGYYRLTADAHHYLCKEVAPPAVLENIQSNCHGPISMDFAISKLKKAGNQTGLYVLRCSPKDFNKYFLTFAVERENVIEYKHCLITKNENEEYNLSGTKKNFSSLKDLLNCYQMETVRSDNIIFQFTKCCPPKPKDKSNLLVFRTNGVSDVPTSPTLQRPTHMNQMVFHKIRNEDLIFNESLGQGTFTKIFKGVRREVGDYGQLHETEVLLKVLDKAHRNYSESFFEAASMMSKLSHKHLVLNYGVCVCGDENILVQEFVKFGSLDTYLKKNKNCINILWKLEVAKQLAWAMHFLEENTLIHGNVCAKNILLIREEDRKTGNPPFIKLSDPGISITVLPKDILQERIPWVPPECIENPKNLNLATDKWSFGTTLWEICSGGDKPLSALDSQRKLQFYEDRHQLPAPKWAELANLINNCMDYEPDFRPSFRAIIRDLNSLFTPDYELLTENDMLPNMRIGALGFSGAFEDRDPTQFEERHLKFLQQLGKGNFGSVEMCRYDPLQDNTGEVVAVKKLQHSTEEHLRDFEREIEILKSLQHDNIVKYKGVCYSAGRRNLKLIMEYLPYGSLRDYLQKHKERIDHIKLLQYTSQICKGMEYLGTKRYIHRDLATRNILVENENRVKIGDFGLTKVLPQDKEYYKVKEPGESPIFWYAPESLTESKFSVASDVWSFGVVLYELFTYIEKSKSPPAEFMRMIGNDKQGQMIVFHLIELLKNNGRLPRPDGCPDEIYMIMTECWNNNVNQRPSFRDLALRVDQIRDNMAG

Question: How did the IC50 turn out when O=C(c1ccccc1)c1ccc2nc3c4ccccc4c4ccccc4c3nc2c1 [SBLJ23, Dibenzo [a, c] phenazin-11-yl(phenyl) methanone] was run?
Answer: The IC50 was 522 nM.
